Assay results: patent publication US9834512B2, “(22E)-2-methylene-26,27-cyclo-22-dehydro-1α-hydroxy-19-norvitamin D3 derivatives” (WISCONSIN ALUMNI RESEARCH FOUNDATION, priority 2011, dated 2017)
Entries after “also recorded” stand apart in the source; their conditions may differ. Read-outs that look alike come from different tables or passages of the source.

Legend:
vitamin D receptor [1] = molecular target: T1, vitamin D receptor (Rattus norvegicus, UniProt P13053); experiment: Competitive vitamin D receptor binding; conditions: for Competitive VDR Binding (Relative Activity): native hormone value / working example value, same assay; for Competitive VDR Binding (Relative Activity) / Ki: present compounds; for Ki: read-out: Competitive VDR Binding, Ki; for Binding to the nuclear vitamin D receptor compared with native hormone: versus 1,25(OH)2D3; for VDR binding activity relative to CN-67 (ratio of relative activities): versus CN-67
T1 construct: Full-length recombinant rat receptor was expressed in E. coli; His tag (C); made in house; host or cells: E. coli BL21(DE3) Codon Plus RIL
T1 sequence (P13053 1-423): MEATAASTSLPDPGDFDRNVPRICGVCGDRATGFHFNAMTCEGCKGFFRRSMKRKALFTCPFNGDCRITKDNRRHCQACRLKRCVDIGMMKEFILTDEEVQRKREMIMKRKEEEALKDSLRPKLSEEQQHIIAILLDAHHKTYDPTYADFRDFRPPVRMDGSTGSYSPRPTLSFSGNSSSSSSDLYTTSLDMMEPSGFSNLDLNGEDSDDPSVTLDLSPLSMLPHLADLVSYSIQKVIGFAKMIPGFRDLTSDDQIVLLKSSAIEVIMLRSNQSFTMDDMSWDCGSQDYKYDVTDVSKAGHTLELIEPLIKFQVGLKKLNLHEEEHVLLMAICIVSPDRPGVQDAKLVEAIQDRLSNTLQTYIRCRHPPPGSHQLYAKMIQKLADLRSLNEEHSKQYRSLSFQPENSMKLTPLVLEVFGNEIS
Procedure: Full-length recombinant rat receptor was expressed in E. coli BL21(DE3) Codon Plus RIL cells and purified to homogeneity using two different column chromatography systems. The first system was a nickel affinity resin that utilizes the C-terminal histidine tag on this protein. The protein that was eluted from this resin was further purified using ion exchange chromatography (S-Sepharose Fast Flow). Aliquots of the purified protein were quick frozen in liquid nitrogen and stored at −80° C. until use. For use in binding assays, the protein was diluted in TEDK50 (50 mM Tris, 1.5 mM EDTA, pH 7.4, 5 mM DTT, 150 mM KCl) with 0.1% Chaps detergent. The receptor protein and ligand concentration was optimized such that no more than 20% of the added radiolabeled ligand was bound to the receptor.
Unlabeled ligands were dissolved in ethanol and the concentrations determined using UV spectrophotometry (1,25(OH)2D3: molar extinction coefficient=18,200 and λmax=265 nm; Analogs: molar extinction coefficient=42,000 and λmax=252 nm). Radiolabeled ligand (^3H-1,25(OH)2D3, ˜159 Ci/mmole) was added in ethanol at a final concentration of 1 nM.
Radiolabeled and unlabeled ligands were added to 100 mcl of the diluted protein at a final ethanol concentration of ≦10%, mixed and incubated overnight on ice to reach binding equilibrium. The following day, 100 mcl of hydroxylapatite slurry (50%) was added to each tube and mixed at 10-minute intervals for 30 minutes. The hydroxylapaptite was collected by centrifugation and then washed three times with Tris-EDTA buffer (50 mM Tris, 1.5 mM EDTA, pH 7.4) containing 0.5% Titron X-100. After the final wash, the pellets were transferred to scintillation vials containing 4 ml of Biosafe II scintillation cocktail, mixed and placed in a scintillation counter. Total binding was determined from the tubes containing only radiolabeled ligand.

HL-60 cells = experiment: HL-60 differentiation (nitro blue tetrazolium reduction); format: cell-based, human; conditions: for EC50: Homo sapiens, HL-60; for HL-60 cell differentiation activity: compound alone; for HL-60 Differentiation (Relative Activity): native hormone value / working example value, same assay
Procedure: The study drugs were dissolved in ethanol and the concentrations determined using UV spectrophotometry. Serial dilutions were prepared so that a range of drug concentrations could be tested without changing the final concentration of ethanol (≦0.2%) present in the cell cultures.
Human promyelocytic leukemia (HL60) cells were grown in RPMI-1640 medium containing 10% fetal bovine serum. The cells were incubated at 37° C. in the presence of 5% CO2.
HL60 cells were plated at 1.2×10^5 cells/ml. Eighteen hours after plating, cells in duplicate were treated with the drug. Four days later, the cells were harvested and a nitro blue tetrazolium reduction assay was performed (Collins et al., 1979; J. Exp. Med. 149:969-974). The percentage of differentiated cells was determined by counting a total of 200 cells and recording the number that contained intracellular black-blue formazan deposits. Verification of differentiation to monocytic cells was determined by measuring phagocytic activity (data not shown).
Antagonism was tested by adding a combination of 1,25(OH)2D3 and the putative antagonist in the same well keeping the final ethanol concentration the same.

[2] = system: 24-hydroxylase (24OHase) gene promoter; experiment: In vitro 24-hydroxylase transcription assay (luciferase reporter, ROS 17/2.8 bone cells); format: cell-based; conditions: for Antagonism of gene transactivation stimulated by native hormone: combined with 1,25(OH)2D3; for 24OHase Transcription (Relative Activity): native hormone value / working example value, same assay
Procedure: Transcription activity was measured in ROS 17/2.8 (bone) cells that were stably transfected with a 24-hydroxylase (24OHase) gene promoter upstream of a luciferase reporter gene (Arbour et al., 1998). Cells were given a range of doses. Sixteen hours after dosing, the cells were harvested and luciferase activities were measured using a luminometer. RLU=relative luciferase units.

Sprague-Dawley rats [3] = experiment: Bone calcium mobilization (serum calcium); format: in vivo, rat; conditions: for Bone calcium mobilization activity: rat, intraperitoneal, at the doses tested
Procedure: (§1) Male, weanling Sprague-Dawley rats were placed on Diet 11 (0.47% Ca) diet+AEK oil for one week followed by Diet 11 (0.02% Ca)+AEK oil for 3 weeks. The rats were then switched to a diet containing 0.47% Ca for one week followed by two weeks on a diet containing 0.02% Ca. Dose administration began during the last week on 0.02% calcium diet. Four consecutive intraperitoneal doses were given approximately 24 hours apart. Twenty-four hours after the last dose, blood was collected from the severed neck and the concentration of serum calcium determined as a measure of bone calcium mobilization. The first 10 cm of the intestine was also collected for intestinal calcium transport analysis using the everted gut sac method.
(§2) Antagonism was tested by administering a combination of 1,25(OH)2D3 and the putative antagonist to the animal simultaneously.

Sprague-Dawley rats [4] = experiment: Intestinal calcium transport (everted gut sac); format: in vivo, rat; conditions: for Intestinal calcium transport activity compared with native hormone: rat, intraperitoneal; for Intestinal calcium transport activity at very high doses: very high doses (e.g., 2340-2600 pmol)
Procedure: as §1, §2

vitamin D receptor [5] = molecular target: T1, vitamin D receptor; conditions: compounds of U.S. Pat. No. 7,915,242; read-out: Competitive VDR Binding, Ki; cited from earlier work
[6] = when administered with 1,25(OH)2D3, present compounds
[7] = combined with 1,25(OH)2D3, systemic administration

Compound	Competitive VDR Binding (Relative Activity) (vitamin D receptor [1])	Ki (vitamin D receptor [1]) [nM]	Binding to the nuclear vitamin D receptor compared with native hormone (vitamin D receptor [1])	VDR binding activity relative to CN-67 (ratio of relative activities) (vitamin D receptor [1])	EC50 (HL-60 cells; present compounds) [nM]	HL-60 cell differentiation activity (HL-60 cells)	HL-60 Differentiation (Relative Activity) (HL-60 cells; present compounds)	Antagonism of gene transactivation stimulated by native hormone [2]	24OHase Transcription (Relative Activity) ([2]; present compounds)	EC50 ([2]; present compounds) [nM]	Bone calcium mobilization activity (Sprague-Dawley rats [3])	Intestinal calcium transport activity compared with native hormone (Sprague-Dawley rats [4])	Intestinal calcium transport activity at very high doses (Sprague-Dawley rats [4])	Ki (vitamin D receptor [5]) [nM]	also measured
C=C1[C@H](O)CC(=C/C=C2\CCC[C@]3(C)[C@@H]([C@H](C)/C=C/[C@@H](O)C4(C(=O)SCCCC)CC4)CC[C@@H]23)C[C@H]1O [AS-51, (20R,22E,24R)-25-carbobutylsulfanyl-2-methylene-26,27-cyclo-22-dehydro-1α,24-dihydroxy-19-norvitamin D3]	1.0	0.1	same potency as the native hormone; also recorded: bind the vitamin D receptor	≈ 67 times	> 1000	does not effectively promote cellular differentiation	0.002	can inhibit gene transactivation stimulated by the native hormone; also recorded: antagonistic activity; also recorded: inhibits gene transactivation stimulated by the native hormone	0.02	6	essentially inactive in releasing bone calcium stores; also recorded: neither PP-48 nor AS-51 demonstrate any appreciable ability to mobilize calcium from bone	somewhat less active than 1,25(OH)2D3 in stimulating intestinal calcium transport at very high doses; also recorded: potency less than that of the native hormone at low doses	increased intestinal calcium transport activity at very high doses	–	Concentrations showing inhibition of cellular differentiation (HL-60 cells; antagonist mode): 10^−8-10^−7 M; Inhibition of native hormone-induced HL-60 differentiation (HL-60 cells; combined with 1,25(OH)2D3): potent inhibitor of the native hormone; also recorded: antagonistic activity; HL-60 potency relative to CN-67 (ratio of relative activities) (HL-60 cells; versus CN-67): ≈ 0.03; HL-60 potency relative to OU-72 (ratio of relative activities) (HL-60 cells; versus OU-72): ≈ 0.007; HL-60 Differentiation, antagonism (HL-60 cells; [6]): Antagonistic; Concentrations showing inhibition of gene transactivation ([2]; antagonist mode): 10^−8-10^−7 M; Times less potent than native hormone in increasing transcription of the 24-hydroxylase gene ([2]; bone cells, versus 1,25(OH)2D3): ~60 times; 24-hydroxylase transcription potency relative to CN-67 (ratio of relative activities) ([2]; versus CN-67, bone cells): ≈ 3; 24-hydroxylase transcription potency relative to OU-72 (ratio of relative activities) ([2]; versus OU-72, bone cells): 2; 24OHase Transcription, antagonism [2, 6]: Antagonistic; In vivo antagonism in combination with native hormone (bone calcium mobilization) (Sprague-Dawley rats [3]; [7]): no antagonism was observed; In vivo antagonism in combination with native hormone (intestinal calcium transport) (Sprague-Dawley rats [4]; [7]): no antagonism was observed
C=C1C(O)CC(=CC=C2CCCC3(C)C2CCC3C(C)C=CC(OCCCC)C2(C(=O)OCCCC)CC2)CC1O [CN-67, (22E)-(24R)-24-butoxy-25-carbobutoxy-2-methylene-26,27-cyclo-22-dehydro-1α-hydroxy-19-norvitamin D3]	–	–	–	–	–	–	–	–	–	–	–	–	–	1.5	–
C=C1C(O)CC(=CC=C2CCCC3(C)C2CCC3C(C)C=CC(O)C2(C(=O)OCCCC)CC2)CC1O [OU-72, (22E)-(24R)-25-carbobutoxy-2-methylene-26,27-cyclo-22-dehydro-1α,24-dihydroxy-19-norvitamin D3]	–	–	–	–	–	–	–	–	–	–	–	–	–	0.023	–
C=C1[C@H](O)CC(=C/C=C2\CCC[C@]3(C)[C@@H]([C@H](C)/C=C/C(=O)C4(C(=O)CCC(C)C)CC4)CC[C@@H]23)C[C@H]1O [PP-48, (20R,22E)-2-methylene-25-(4-methylpentanoyl)-24-oxo-26,27-cyclo-22-dehydro-1α-hydroxy-19-norvitamin D3]	0.17	0.6	lower affinity relative to 1,25(OH)2D3; also recorded: lower affinity than the native hormone; also recorded: bind the vitamin D receptor	≈ 11 times	30	agonistic behavior; also recorded: active in causing HL-60 differentiation	0.1	no antagonistic activity	0.1	2	essentially no ability to mobilize calcium from bone; also recorded: essentially inactive in releasing bone calcium stores; also recorded: neither PP-48 nor AS-51 demonstrate any appreciable ability to mobilize calcium from bone	potency similar to that of the native hormone	increased intestinal calcium transport activity at very high doses	–	24-hydroxylase transcription activity ([2]; compound alone): agonistic behavior; also recorded: exhibits activity in 24-hydroxylase transcription, albeit reduced from the native hormone; Intestinal calcium transport activity at moderate doses (Sprague-Dawley rats [4]; moderate doses): only PP-48 increased such transport significantly at moderate doses
